What all share (type): in vitro ADME
One data set concerns the target T1, CYP1A2 (Homo sapiens, UniProt P05177).
T1 construct: tissue Corning 452117; host or cells: human liver microsomes
T1 sequence (P05177 1-516): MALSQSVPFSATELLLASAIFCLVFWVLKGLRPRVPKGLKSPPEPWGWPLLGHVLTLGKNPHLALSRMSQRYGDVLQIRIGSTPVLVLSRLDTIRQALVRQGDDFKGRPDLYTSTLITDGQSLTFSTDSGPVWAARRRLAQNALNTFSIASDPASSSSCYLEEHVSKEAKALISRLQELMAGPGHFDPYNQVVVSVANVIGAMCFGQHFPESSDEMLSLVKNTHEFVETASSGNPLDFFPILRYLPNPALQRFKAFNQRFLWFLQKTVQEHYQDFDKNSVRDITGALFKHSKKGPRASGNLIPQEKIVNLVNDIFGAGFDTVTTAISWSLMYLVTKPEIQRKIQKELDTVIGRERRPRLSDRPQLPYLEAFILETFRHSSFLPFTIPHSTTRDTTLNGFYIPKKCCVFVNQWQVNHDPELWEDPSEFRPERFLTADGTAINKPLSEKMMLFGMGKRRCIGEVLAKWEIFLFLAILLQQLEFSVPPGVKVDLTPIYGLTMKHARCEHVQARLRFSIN
The experiment in a line: CYP450 inhibition assay in human liver microsomes, CYP1A2. On the procedure: (§1) To evaluate the reliability and reproducibility of the CYP450 inhibition assay, we measured the inhibitory effects of selected positive control inhibitors of each CYP450 enzyme in human liver microsomes (HLM, Table 1, Figure 2). The potency of inhibition was estimated by observing the alteration in concentration of metabolites of CYP450 substrates (Table 1).
(§2) Reagents preparation. […] The stock solution of PDQ (10 mM) was prepared with methanol and further diluted to the range of 3 µM to 3 mM with methanol to ensure that the solvent of different PDQ samples contained the same amount (1%) of methanol.
(§3) The stock solutions of the positive control inhibitors and the probe substrates of CYP450 enzymes were prepared in methanol.
(§4) CYP450 inhibition assay. […] The assay was conducted in polypropylene 96-well plates (2.2 mL/well, Apricot Designs Inc., Covina, CA, USA).
(§5) The total volume of the reaction is 200 μL. The HLM mixtures (102 μL) containing individual probe substrates (Table 3), KH2PO4 buffer (100 mM, pH 7.4), and either PDQ or the positive control inhibitors (Table 3) were incubated for 10 min at 37 °C in a shaking incubator. Reactions were initiated by adding 98 μL NADPH (final concentration is 1.3 mM NADPH, 3 mM MgCl2 in 100 mM KH2PO4 buffer). The HLM reaction mixtures were shaken at 37 °C for various times (Table 4). The reaction time of CYP3A4 (midazolam), CYP2C19 and CYP2D6 were 3, 20 and 20 min, respectively, while the reactions of other CYP enzymes were terminated after 10 min. The reactions were quenched by adding 200 μL acetonitrile containing 3% formic acid and specific internal standards (Table 4). After shaking at 1000 rpm for 10 min, the reaction mixtures were centrifuged at 4000 rpm for 20 min. Supernatants were diluted with ultrapure water (Table 4) and shaken for 10 min at 1000 rpm. […] The substrates and analytes were analyzed by LC-MS/MS (API4000, Applied Biosystems, Singapore; HPLC, Shimadzu, Japan). […]
(§6) Data analysis. […] The IC50 was determined by fitting the dependence of the relative remaining activity (y = Vi/V0) to the following three-parameter equation (Equation (1)). […]
In general terms: Liver microsomes are vesicles of endoplasmic reticulum, rich in cytochrome P450 enzymes.

Another data set deals with T2, CYP2C9 (Homo sapiens, UniProt P11712).
T2 construct: tissue Corning 452117; host or cells: human liver microsomes
The experiment in a line: CYP450 inhibition assay in human liver microsomes, CYP2C9. The note with it: HLM 0.1 mg/mL; probe diclofenac 10 µM; 10 min. On the procedure: as §1, §2, §3, §4
(§7) The total volume of the reaction is 200 μL. […] The substrates and analytes were analyzed by LC-MS/MS (API4000, Applied Biosystems, Singapore; HPLC, Shimadzu, Japan). […]
as §6

The target in another data set is T3, CYP2C19 (Homo sapiens, UniProt P33261).
T3 construct: tissue Corning 452117; host or cells: human liver microsomes
The experiment in a line: CYP450 inhibition assay in human liver microsomes, CYP2C19. The note with it: HLM 0.1 mg/mL; probe S-mephenytoin 20 µM; 20 min. Here is the method:
as §1, §2, §3, §4, §7, §6

The target of a further data set is T4, CYP3A4 (Homo sapiens, UniProt P08684).
T4 construct: tissue Corning 452117; host or cells: human liver microsomes
The experiment in a line: CYP450 inhibition assay in human liver microsomes, CYP3A4 (midazolam and testosterone). Here is the method:
as §1, §2, §3, §4, §5, §6

Experimental findings from PMC11173382, “In Vitro Investigations into the Potential Drug Interactions of Pseudoginsenoside DQ Mediated by Cytochrome P450 and Human Drug Transporters” (Molecules, 2024) are described below.

Structures are written as SMILES. Where two headings read alike, the source gives them in different places.

T4 sequence (P08684 whole entry): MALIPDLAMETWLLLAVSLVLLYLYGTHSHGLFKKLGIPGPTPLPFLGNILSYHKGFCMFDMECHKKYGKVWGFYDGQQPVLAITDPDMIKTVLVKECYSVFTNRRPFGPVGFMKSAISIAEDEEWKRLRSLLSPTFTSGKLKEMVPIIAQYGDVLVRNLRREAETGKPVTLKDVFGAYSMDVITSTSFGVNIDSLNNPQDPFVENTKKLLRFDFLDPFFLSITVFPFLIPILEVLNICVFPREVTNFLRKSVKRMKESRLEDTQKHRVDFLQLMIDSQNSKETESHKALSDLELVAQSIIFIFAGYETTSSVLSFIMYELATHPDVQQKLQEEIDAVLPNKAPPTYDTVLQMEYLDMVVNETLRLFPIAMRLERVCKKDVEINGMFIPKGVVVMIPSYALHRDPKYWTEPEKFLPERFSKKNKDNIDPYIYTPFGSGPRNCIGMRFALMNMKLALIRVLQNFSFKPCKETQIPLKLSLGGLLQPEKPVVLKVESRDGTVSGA
T2 sequence (P11712 whole entry): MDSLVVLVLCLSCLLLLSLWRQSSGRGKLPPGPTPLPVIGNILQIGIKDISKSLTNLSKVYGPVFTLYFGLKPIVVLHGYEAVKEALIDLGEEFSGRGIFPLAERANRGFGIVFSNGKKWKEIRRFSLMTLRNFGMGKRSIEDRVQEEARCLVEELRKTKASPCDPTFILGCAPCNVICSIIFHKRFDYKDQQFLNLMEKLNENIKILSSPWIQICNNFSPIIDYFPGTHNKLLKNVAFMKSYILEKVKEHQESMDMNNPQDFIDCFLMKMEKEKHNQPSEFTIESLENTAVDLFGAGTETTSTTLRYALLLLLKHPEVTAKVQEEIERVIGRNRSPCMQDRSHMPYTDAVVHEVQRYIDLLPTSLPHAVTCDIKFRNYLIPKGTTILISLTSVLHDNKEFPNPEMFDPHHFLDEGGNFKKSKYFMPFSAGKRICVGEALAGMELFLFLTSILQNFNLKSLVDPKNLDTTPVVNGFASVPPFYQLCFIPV
T3 sequence (P33261 whole entry): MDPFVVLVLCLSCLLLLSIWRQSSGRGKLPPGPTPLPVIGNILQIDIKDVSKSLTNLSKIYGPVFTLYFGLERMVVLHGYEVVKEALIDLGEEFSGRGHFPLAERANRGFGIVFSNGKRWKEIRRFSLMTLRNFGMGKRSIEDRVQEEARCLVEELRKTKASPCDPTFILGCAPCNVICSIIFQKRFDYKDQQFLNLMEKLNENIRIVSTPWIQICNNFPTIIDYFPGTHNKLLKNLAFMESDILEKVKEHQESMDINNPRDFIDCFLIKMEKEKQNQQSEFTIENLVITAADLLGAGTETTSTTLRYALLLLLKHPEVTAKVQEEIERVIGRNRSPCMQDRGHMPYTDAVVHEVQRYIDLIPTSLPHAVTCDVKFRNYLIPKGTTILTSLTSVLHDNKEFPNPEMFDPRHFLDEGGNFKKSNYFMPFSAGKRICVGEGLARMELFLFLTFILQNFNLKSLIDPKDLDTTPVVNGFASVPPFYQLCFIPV

As for `CC(C)(O)[C@@H]1CC[C@@](C)([C@H]2CC[C@]3(C)[C@@H]2[C@H](O)C[C@@H]2[C@@]4(C)CC[C@H](O)C(C)(C)[C@@H]4CC[C@]23C)O1` [PDQ, (20S,24S)-dammar-20,24-epoxy-3β, 12β, 25-triol], the IC50 at CYP1A2 (HLM 0.1 mg/mL, probe phenacetin 75 µM, 10 min) is above 100 µM; on CYP2C9 it was 11.7 µM; on CYP2C19, 0.698 µM; on CYP3A4 (HLM 0.1 mg/mL, probe midazolam 2 µM, 3 min, read-out: IC50 on CYP3A4 (Midazolam)), 2.02 µM; at CYP3A4 (HLM 0.1 mg/mL, probe testosterone 40 µM, 10 min, read-out: IC50 on CYP3A4 (Testosterone)), 6.79 µM; on CYP3A4 (HLM, midazolam and testosterone as substrates, read-out: IC50 on CYP3A4 (range over both substrates)) it was 2.02 to 6.79 µM. On CYP1A2 (PDQ within the range of 0.03 to 30.0 μM, HLM), the “effect on CYP1A2-catalyzed de-ethylation” value is “activated”. In addition, the “percentage mean control activity of CYP1A2” value at CYP1A2 (highest tested dose of PDQ (100 μM), HLM) stood at 100.8%.

As usually defined, the IC50 is the concentration that inhibits the measured activity by half.
